The results in this text go back to PubChem BioAssay (NCI).

Among the test systems are COLO 205 colon; NCI-H522 lung; HOP-62 NSCLC; SNB-75 CNS; SF-295 CNS; LOX IMVI melanoma; RXF 393 renal; MOLT-4 leukemia; MDA-MB-231 breast; PC-3 prostate.
Common to all, as to test: NCI-60 cell line screen, 48 h

Values joined by “and” are separate entries in the source; they are usually repeats but may differ in a detail not shown here. Equal entries are not always repeated.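 1) Cells in 96-well plates. 2) Compound, 48 h, 5 concentrations. 3) Linear interpolation between surrounding doses. 4) Unreached endpoint = highest concentration. Here, GI50 denotes the concentration required for 50% inhibition of growth. TGI marks complete inhibition of growth.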 Bounds are passed on as bounds.

`C#CCn1c(=O)c(C#N)c(O)c2cc3ccccc3nc21`: the TGI with COLO 205 colon, with NCI-H522 lung, with HOP-62 NSCLC, in the assay on SNB-75 CNS, in the assay on SF-295 CNS and in the assay with LOX IMVI melanoma was > 100 µM each time. Also, the TGI in the assay with RXF 393 renal and in the assay with MOLT-4 leukemia was > 100 µM each time.
`CC1(Cl)CC2C(CC1Sc1nnnn1-c1ccccc1)C2(C)C` (centres undefined): the TGI in the assay on COLO 205 colon, in the assay with HOP-62 NSCLC, in the assay on SF-295 CNS, with LOX IMVI melanoma, in the assay with RXF 393 renal and in the assay on MOLT-4 leukemia was > 100 µM throughout.
`Nc1cc(N2CCCC2)nc(=O)n1Cc1ccccc1`: the TGI in the assay with MDA-MB-231 breast, in the assay on COLO 205 colon, in the assay on NCI-H522 lung, in the assay on HOP-62 NSCLC, in the assay on SNB-75 CNS and in the assay with SF-295 CNS was > 100 µM in each case. The TGI in the assay with LOX IMVI melanoma, in the assay with MOLT-4 leukemia and in the assay with PC-3 prostate was > 100 µM each time.
`COc1cc2c(cc1OC)-c1c3c(cc4c1[C@@H](C2)N(C)CC4)OCO3`: the TGI with COLO 205 colon amounted to 32.1 µM; in the assay on NCI-H522 lung it was 21.1 µM; in the assay with HOP-62 NSCLC, 20.7 µM; in the assay on SNB-75 CNS it was 23.9 µM; in the assay on SF-295 CNS, 16.7 µM; in the assay with LOX IMVI melanoma it was 75 µM. The TGI in the assay with RXF 393 renal came out at 19.2 µM; in the assay on MOLT-4 leukemia it was 12 µM.
Turning to `O=C(CNc1ccc(Cl)cc1Cl)NC1C=Cc2ccc(S(=O)(=O)Nc3ccc(Cl)cc3Cl)cc2C1=O` (centres undefined), the TGI in the assay on MDA-MB-231 breast, with COLO 205 colon, in the assay on NCI-H522 lung, in the assay on HOP-62 NSCLC, in the assay with SNB-75 CNS and in the assay with SF-295 CNS was > 100 µM in each case. Moreover, the TGI in the assay on LOX IMVI melanoma, in the assay on MOLT-4 leukemia and in the assay with PC-3 prostate was > 100 µM in each case.
With `c1ccc2c(Cc3nnc4sc(SSc5nn6c(Cc7c[nH]c8ccccc78)nnc6s5)nn34)c[nH]c2c1`, the TGI in the assay on COLO 205 colon was 50.9 µM; with NCI-H522 lung it was 40 µM; in the assay on HOP-62 NSCLC, 30.2 µM; in the assay with SNB-75 CNS, > 100 µM; with SF-295 CNS, 44.1 µM; in the assay on RXF 393 renal, 50.9 µM. The TGI in the assay with MOLT-4 leukemia was 70.6 µM; in the assay on PC-3 prostate, > 100 µM.
As for `Clc1ccc(N=c2oc3ccccc3cc2-c2nc3ccccc3[nH]2)c(Cl)c1`, the TGI in the assay on NCI-H522 lung is > 100 µM; with HOP-62 NSCLC, 65.1 µM; in the assay with SF-295 CNS it was > 100 µM; in the assay with LOX IMVI melanoma, > 100 µM; in the assay with RXF 393 renal, 41.7 µM; in the assay on MOLT-4 leukemia, > 100 µM. Moreover, in the assay with PC-3 prostate, the TGI is > 100 µM.
Consider `CCCCOCn1c(=O)[nH]c(=O)c2cc(Br)ccc21`, for which the TGI in the assay with MDA-MB-231 breast, with COLO 205 colon, with SNB-75 CNS, with SF-295 CNS, with LOX IMVI melanoma and in the assay on RXF 393 renal was > 100 µM in each case. In addition, the TGI in the assay on MOLT-4 leukemia and in the assay on PC-3 prostate was > 100 µM in each case.
As to `COc1cc(S(=O)(=O)Nc2ccc(C3=NNC(c4ccccc4)C3)cc2)ccc1F` (centres undefined), the GI50 is 51.4 µM with COLO 205 colon; 38 µM with NCI-H522 lung; 22.7 µM in the assay with HOP-62 NSCLC; 23.9 µM in the assay with SNB-75 CNS; 28.5 µM in the assay with SF-295 CNS; 73.5 µM in the assay with LOX IMVI melanoma. The GI50 is 48.3 µM in the assay with MOLT-4 leukemia and 29.8 µM in the assay on PC-3 prostate. In addition, the TGI in the assay with COLO 205 colon is > 100 µM; in the assay with NCI-H522 lung, > 100 µM; in the assay on HOP-62 NSCLC, 80.4 µM; in the assay with SNB-75 CNS it was > 100 µM; in the assay with SF-295 CNS it was > 100 µM; in the assay on LOX IMVI melanoma, > 100 µM. For the same compound, the TGI with MOLT-4 leukemia and with PC-3 prostate was > 100 µM throughout.
As for `O=c1[nH]c(N/N=C\C(O)C(O)C(O)CO)nc2ccccc12` (centres undefined), the GI50 in the assay on MDA-MB-231 breast was > 100 µM and 47.7 µM. Further, the TGI in the assay on MDA-MB-231 breast, in the assay with COLO 205 colon, in the assay on HOP-62 NSCLC, in the assay with SNB-75 CNS, in the assay on SF-295 CNS and with LOX IMVI melanoma was > 100 µM in each case. Moreover, the TGI in the assay on MOLT-4 leukemia and in the assay with PC-3 prostate was > 100 µM in each case.
Regarding `NNC(=S)N1CCN(C(=S)NN)CC1`, the TGI with MDA-MB-231 breast, in the assay with COLO 205 colon, in the assay with NCI-H522 lung, with HOP-62 NSCLC, in the assay on SNB-75 CNS and in the assay on SF-295 CNS was > 100 µM throughout. Further, the TGI with LOX IMVI melanoma, in the assay with MOLT-4 leukemia and with PC-3 prostate was > 100 µM throughout.
Turning to `CSC1=NS(=O)(=O)c2cc(C(=O)NN(C)C(=O)c3cc4c(cc3Cl)SC(SC)=NS4(=O)=O)c(Cl)cc2S1`, the TGI with COLO 205 colon, with NCI-H522 lung, in the assay with HOP-62 NSCLC, in the assay with SNB-75 CNS, in the assay with SF-295 CNS and in the assay on LOX IMVI melanoma was > 10 µM throughout. Further, the TGI with RXF 393 renal, in the assay on MOLT-4 leukemia and in the assay on PC-3 prostate was > 10 µM each time.
Consider `CC(C)CNC(=O)Cn1c(-c2ccccc2)cc2ccccc21`, for which the TGI in the assay with COLO 205 colon, with NCI-H522 lung, with HOP-62 NSCLC, in the assay on SNB-75 CNS, with SF-295 CNS and with LOX IMVI melanoma was > 100 µM in each case. For the same compound, the TGI with RXF 393 renal, in the assay with MOLT-4 leukemia and in the assay on PC-3 prostate was > 100 µM in each case.
For the compound `CCOC(=O)C(CS)NC(=O)CCCCCCCC(=O)NC(CS)C(=O)OCC` (centres undefined), the TGI with MDA-MB-231 breast, in the assay with COLO 205 colon, in the assay with NCI-H522 lung, in the assay with HOP-62 NSCLC, in the assay with SNB-75 CNS and in the assay with SF-295 CNS was > 100 µM each time. For the same compound, the TGI with LOX IMVI melanoma, with MOLT-4 leukemia and in the assay on PC-3 prostate was > 100 µM each time.
